{"source": "patent US9359308B2", "about": "“Pyrazine kinase inhibitors” (Portola Pharmaceuticals, Inc., priority 2011, dated 2016)", "data": [{"biological_target": "T1, full length active recombinant SYK enzyme (Homo sapiens, UniProt P43405)", "T1 construct": "full length active recombinant SYK enzyme (Millipore, Calif.); purchased Millipore", "test": "Inhibition of Syk tyrosine phosphorylation activity (LANCE TR-FRET kinase assay)", "format": "biochemical", "conditions": "activity in the Syk assays, class symbols", "how_it_was_run": "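IC50 was derived by non-linear regression of TR-FRET signal (Eu-W1024-PY100 donor, streptavidin-APC acceptor) read 1 h after EDTA quench. The kinase step ran 1 h at room temperature with 1 nM full-length SYK, 550 nM biotinylated DEEDYESP substrate and 100 μM ATP in Tris pH 7.5/MgCl2/DTT at 3% final DMSO.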", "units": {"IC50": "nM"}, "values": [{"smiles": "NC(=O)c1ncc(N[C@@H]2CCCC(F)(F)[C@@H]2N)nc1Nc1cnc2ccccc2c1", "note": "[Example 102, 5-((1R,2R)-2-amino-3,3-difluorocyclohexylamino)-3-(quinolin-3-ylamino)pyrazine-2-carboxamide]", "IC50": "10 to 100"}, {"smiles": "Cc1cccc(Nc2nc(N[C@@H]3CCCC(F)(F)[C@@H]3N)cnc2C(N)=O)c1", "note": "[Example 103, 5-((1R,2R)-2-amino-3,3-difluorocyclohexylamino)-3-(m-tolylamino)pyrazine-2-carboxamide]", "IC50": "10 to 100"}, {"smiles": "NC(=O)c1ncc(N[C@@H]2CCNC2)nc1Nc1cccc(-n2nccn2)c1", "note": "[Example 105, (R)-3-((3-(2H-1,2,3-triazol-2-yl)phenyl)amino)-5-(pyrrolidin-3-ylamino)pyrazine-2-carboxamide]", "IC50": "1 to 10"}, {"smiles": "NC(=O)c1ncc(N[C@@H]2CCNC2)nc1Nc1csc2ncccc12", "note": "[Example 106, (R)-5-(pyrrolidin-3-ylamino)-3-(thieno[2,3-b]pyridin-3-ylamino)pyrazine-2-carboxamide]", "IC50": "1 to 10"}, {"smiles": "NC(=O)c1ncc(N[C@@H]2CCNC2)nc1Nc1cnn2ccccc12", "note": "[Example 107, (R)-3-(pyrazolo[1,5-a]pyridin-3-ylamino)-5-(pyrrolidin-3-ylamino)pyrazine-2-carboxamide]", "IC50": "10 to 100"}, {"smiles": "NC(=O)c1ncc(N[C@H]2CCNC2)nc1Nc1ccc2ncccc2c1", "note": "[Example 108, (S)-5-(pyrrolidin-3-ylamino)-3-(quinolin-6-ylamino)pyrazine-2-carboxamide]", "IC50": "10 to 100"}, {"smiles": "CC(=O)N1CCC[C@H](Nc2cnc(C(N)=O)c(Nc3cnc4ccccc4c3)n2)C1", "note": "[Example 109, (S)-5-((1-acetylpiperidin-3-yl)amino)-3-(quinolin-3-ylamino)pyrazine-2-carboxamide]", "IC50": "> 1000"}, {"smiles": "CC(=O)N1CC[C@@H](Nc2cnc(C(N)=O)c(Nc3cnc4ccccc4c3)n2)C1", "note": "[Example 110, (R)-5-((1-acetylpyrrolidin-3-yl)amino)-3-(quinolin-3-ylamino)pyrazine-2-carboxamide]", "IC50": "> 1000"}, {"smiles": "CC(=O)N1CC[C@@H](Nc2cnc(C(N)=O)c(Nc3ccc4ncccc4c3)n2)C1", "note": "[Example 111, (R)-5-((1-acetylpyrrolidin-3-yl)amino)-3-(quinolin-6-ylamino)pyrazine-2-carboxamide]", "IC50": "> 1000"}, {"smiles": "Cc1ccc(Nc2nc(N[C@@H]3CCNC3)cnc2C(N)=O)cc1", "note": "[Example 112, (R)-5-(pyrrolidin-3-ylamino)-3-(p-tolylamino)pyrazine-2-carboxamide]", "IC50": "10 to 100"}, {"smiles": "NC(=O)c1ncc(N[C@@H]2CCNC2)nc1Nc1cccnc1", "note": "[Example 113, (R)-3-(pyridin-3-ylamino)-5-(pyrrolidin-3-ylamino)pyrazine-2-carboxamide]", "IC50": "10 to 100"}, {"smiles": "NC(=O)c1ncc(N[C@@H]2CCNC2)nc1Nc1cccc(-c2ncccn2)c1", "note": "[Example 114, (R)-3-((3-(pyrimidin-2-yl)phenyl)amino)-5-(pyrrolidin-3-ylamino)pyrazine-2-carboxamide]", "IC50": "1 to 10"}, {"smiles": "NC(=O)c1ncc(N[C@@H]2CCNC2)nc1Nc1cncc(F)c1", "note": "[Example 115, (R)-3-((5-fluoropyridin-3-yl)amino)-5-(pyrrolidin-3-ylamino)pyrazine-2-carboxamide]", "IC50": "100 to 1000"}, {"smiles": "Cc1cccc(Nc2nc(N[C@@H]3CCNC3)cnc2C(N)=O)c1", "note": "[Example 116, (R)-5-(pyrrolidin-3-ylamino)-3-(m-tolylamino)pyrazine-2-carboxamide]", "IC50": "1 to 10"}, {"smiles": "NC(=O)c1ncc(N[C@@H]2CCNC2)nc1Nc1cnc2ccncc2c1", "note": "[Example 117, (R)-3-((1,6-naphthyridin-3-yl)amino)-5-(pyrrolidin-3-ylamino)pyrazine-2-carboxamide]", "IC50": "10 to 100"}, {"smiles": "N#CCN1CC[C@@H](Nc2cnc(C(N)=O)c(Nc3cnc4ccncc4c3)n2)C1", "note": "[Example 118, (R)-3-((1,6-naphthyridin-3-yl)amino)-5-((1-(cyanomethyl)pyrrolidin-3-yl)amino)pyrazine-2-carboxamide]", "IC50": "100 to 1000"}, {"smiles": "Cc1cc(Nc2nc(N[C@H](CC(F)F)C(N)=O)cnc2C(N)=O)sn1", "note": "[Example 119, (R)-5-((1-amino-4,4-difluoro-1-oxobutan-2-yl)amino)-3-((3-methylisothiazol-5-yl)amino)pyrazine-2-carboxamide]", "IC50": "1 to 10"}, {"smiles": "Cc1nsc(Nc2nc(N[C@@H]3CCCC[C@@H]3N)cnc2C(N)=O)c1-c1ccccc1", "note": "[Example 120, 5-(((1R,2S)-2-aminocyclohexyl)amino)-3-((3-methyl-4-phenylisothiazol-5-yl)amino)pyrazine-2-carboxamide]", "IC50": "10 to 100"}, {"smiles": "Cc1nsc(Nc2nc(N[C@@H]3CCCC[C@@H]3N)cnc2C(N)=O)c1-c1cccnc1", "note": "[Example 121]", "IC50": "100 to 1000"}, {"smiles": "Cc1ccc(Nc2nc(N[C@H](CC(F)F)C(N)=O)cnc2C(N)=O)cc1C", "note": "[Example 122, (R)-5-((1-amino-4,4-difluoro-1-oxobutan-2-yl)amino)-3-((3,4-dimethylphenyl)amino)pyrazine-2-carboxamide]", "IC50": "< 1"}, {"smiles": "Cc1ccc(Nc2nc(N[C@H](CC(F)F)C(N)=O)cnc2C(N)=O)cc1", "note": "[Example 123, (R)-5-((1-amino-4,4-difluoro-1-oxobutan-2-yl)amino)-3-(p-tolylamino)pyrazine-2-carboxamide]", "IC50": "1 to 10"}, {"smiles": "Cc1nsc(Nc2nc(N[C@@H]3CCCC[C@@H]3N)cnc2C(N)=O)c1-c1cncnc1", "note": "[Example 125, 5-(((1R,2S)-2-aminocyclohexyl)amino)-3-((3-methyl-4-(pyrimidin-5-yl)isothiazol-5-yl)amino)pyrazine-2-carboxamide]", "IC50": "> 1000"}, {"smiles": "NC(=O)c1ncc(N[C@H](CC(F)(F)F)C(N)=O)nc1Nc1cnc2cccnc2c1", "note": "[Example 126, (R)-3-((1,5-naphthyridin-3-yl)amino)-5-((1-amino-4,4,4-trifluoro-1-oxobutan-2-yl)amino)pyrazine-2-carboxamide]", "IC50": "1 to 10"}, {"smiles": "NC(=O)c1ncc(N[C@H](CC(F)F)C(N)=O)nc1Nc1cnc2cccnc2c1", "note": "[Example 127, (R)-3-((1,5-naphthyridin-3-yl)amino)-5-((1-amino-4,4-difluoro-1-oxobutan-2-yl)amino)pyrazine-2-carboxamide]", "IC50": "1 to 10"}, {"smiles": "NC(=O)c1ncc(NCC2(N)CC2)nc1Nc1ccc2ncccc2c1", "note": "[Example 128, 5-(((1-aminocyclopropyl)methyl)amino)-3-(quinolin-6-ylamino)pyrazine-2-carboxamide]", "IC50": "1 to 10"}, {"smiles": "CNC1(CNc2cnc(C(N)=O)c(Nc3ccc4ncccc4c3)n2)CC1", "note": "[Example 129, 5-(((1-(methylamino)cyclopropyl)methyl)amino)-3-(quinolin-6-ylamino)pyrazine-2-carboxamide]", "IC50": "1 to 10"}, {"smiles": "CCc1c(C)nsc1Nc1nc(N[C@@H]2CCCC[C@@H]2N)cnc1C(N)=O", "note": "[Example 130, 5-(((1R,2S)-2-aminocyclohexyl)amino)-3-((4-ethyl-3-methylisothiazol-5-yl)amino)pyrazine-2-carboxamide]", "IC50": "1 to 10"}, {"smiles": "Cc1nsc(Nc2nc(N[C@@H]3CCCC[C@@H]3N)cnc2C(N)=O)c1C", "note": "[Example 131, 5-(((1R,2S)-2-aminocyclohexyl)amino)-3-((3,4-dimethylisothiazol-5-yl)amino)pyrazine-2-carboxamide]", "IC50": "< 1"}, {"smiles": "CC[C@@H](Nc1cnc(C(N)=O)c(Nc2snc(C)c2Br)n1)C(N)=O", "note": "[Example 132, (R)-5-((1-amino-1-oxobutan-2-yl)amino)-3-((4-bromo-3-methylisothiazol-5-yl)amino)pyrazine-2-carboxamide]", "IC50": "10 to 100"}, {"smiles": "CC[C@@H](Nc1cnc(C(N)=O)c(Nc2snc(C)c2I)n1)C(N)=O", "note": "[Example 133, (R)-5-((1-amino-1-oxobutan-2-yl)amino)-3-((4-iodo-3-methylisothiazol-5-yl)amino)pyrazine-2-carboxamide]", "IC50": "10 to 100"}, {"smiles": "CC[C@@H](Nc1nc(Nc2snc(C)c2I)c(C(N)=O)nc1I)C(N)=O", "note": "[Example 134, (R)-5-((1-amino-1-oxobutan-2-yl)amino)-6-iodo-3-((4-iodo-3-methylisothiazol-5-yl)amino)pyrazine-2-carboxamide]", "IC50": "100 to 1000"}, {"smiles": "CC[C@@H](Nc1cnc(C(N)=O)c(Nc2snc(C)c2Cl)n1)C(N)=O", "note": "[Example 135, (R)-5-((1-amino-1-oxobutan-2-yl)amino)-3-((4-chloro-3-methylisothiazol-5-yl)amino)pyrazine-2-carboxamide]", "IC50": "10 to 100"}, {"smiles": "Cc1cc(Nc2nc(N[C@H](CC3CC3)C(N)=O)c(Cl)nc2C(N)=O)sn1", "note": "[Example 136, (R)-5-((1-amino-3-cyclopropyl-1-oxopropan-2-yl)amino)-6-chloro-3-((3-methylisothiazol-5-yl)amino)pyrazine-2-carboxamide]", "IC50": "10 to 100"}, {"smiles": "CC[C@@H](Nc1nc(Nc2cc(C)ns2)c(C(N)=O)nc1Cl)C(N)=O", "note": "[Example 137, (R)-5-((1-amino-1-oxobutan-2-yl)amino)-6-chloro-3-((3-methylisothiazol-5-yl)amino)pyrazine-2-carboxamide]", "IC50": "10 to 100"}, {"smiles": "Cc1nsc(Nc2nc(N[C@@H]3CCCC[C@@H]3N)cnc2C(N)=O)c1F", "note": "[Example 138]", "IC50": "1 to 10"}, {"smiles": "Cc1cc(Nc2nc(N[C@H]3CN[C@@H](CO)C3)cnc2C(N)=O)sn1", "note": "[Example 139, 5-(((3R,5R)-5-(hydroxymethyl)pyrrolidin-3-yl)amino)-3-((3-methylisothiazol-5-yl)amino)pyrazine-2-carboxamide]", "IC50": "10 to 100"}, {"smiles": "NC(=O)c1ncc(N[C@H]2CN[C@@H](CO)C2)nc1Nc1cnc2ccc(F)cc2c1", "note": "[Example 140, 3-((6-fluoroquinolin-3-yl)amino)-5-(((3R,5R)-5-(hydroxymethyl)pyrrolidin-3-yl)amino)pyrazine-2-carboxamide]", "IC50": "1 to 10"}, {"smiles": "COc1ccc(Nc2nc(N[C@@H](C(N)=O)C(C)C)cnc2C(N)=O)cc1OC", "note": "[Example 141, (R)-5-(1-amino-3-methyl-1-oxobutan-2-ylamino)-3-(3,4-dimethoxyphenylamino)pyrazine-2-carboxamide]", "IC50": "10 to 100"}, {"smiles": "COc1ccc(Nc2nc(N[C@@H]3CCCC[C@@H]3N)cnc2C(N)=O)cc1OC", "note": "[Example 142, 5-((1R,2S)-2-aminocyclohexylamino)-3-(3,4-dimethoxyphenylamino)pyrazine-2-carboxamide]", "IC50": "1 to 10"}]}]}
